In patent US5817640A (Gensia Pharmaceuticals, priority 1995, dated 1998):
Entries after “also recorded” stand apart in the source; their conditions may differ.

Tests used:
[1] = system: patients undergoing coronary artery bypass graft (CABG) surgery; assay: Transmural and non-transmural myocardial infarction, CK-MB and CK release, clinical outcomes (Phase 2); type: in vivo, human; conditions: for Number of patients developing transmural myocardial infarction (new Q-wave and CK-MB ≥ 50 I.U.): placebo 5 of 37; for Number of patients with non-transmural myocardial infarction (CK-MB ≥ 50 I.U.): placebo 17
Description: Creatinine phosphokinase MB band (CK-MB) was obtained every 8 hours for 48 hours and when indicated. Radio-nuclide ventriculography for ejection fraction and wall motion score was done about 14 days post-operation and as close to hospital discharge as possible. Other tests and measurements (e.g., chest x-ray, pulmonary artery wedge pressure (PCWP) were performed when clinically indicated for diagnosis or evaluation of myocardial infarction, or congestive heart failure. Timing and dose of all cardiovascular medications within 48 hours after surgery were recorded. The total dose of all analgesics during the 24-hour post-operative period was recorded. Fluid intake and output (e.g., blood replacement and urine output) were recorded for 48 hours. The type and duration of inotropic support and antiarrhythmic intervention required were recorded through 24 hours after surgery. Two-channel Holter recordings were obtained during 3 periods, the eight hours prior to intubation, from intubation through the end of surgery, and for an additional 24-48 hours after surgery. […] For the diagnosis of myocardial infarction, ECG tracings and CK-MB values were assessed centrally by observers blinded to treatment. The difficulty of weaning the patient from bypass, if any, was compared between placebo and treatment groups by noting need for one or more of the following: pacemaker, return to bypass, balloon pump or use of vasopressors. 4. Clinical Outcome. Outcomes of cardiac death, MI, CHF and life-threatening dysrhythmia were compared. Specific endpoints for analysis were combined into a dichotomous endpoint, i.e., at least one of the four events listed above occurs versus none occurs. Fisher's exact test for small samples was used to compare the rates of clinical outcome between the three treatment groups. […] Blood Chemistry--CPK, CK-MB, uric acid, glucose.

[2] = system: patients undergoing coronary artery bypass graft (CABG) surgery; assay: Ejection fraction and hemodynamics (Phase 2); type: in vivo, human
Description: During surgery, anesthesia was maintained by continuous infusion of fentanyl and midazolam. Routine clinical parameters were recorded using standard operating room monitoring equipment. Continuous 2-lead Holter ECG and TEE data were recorded. Standard surgical procedures (e.g., aorta cross-clamping, crystalloid cardioplegia, cardio-pulmonary bypass, hypothermia) were used. Anastomoses were constructed, aorta cross-clamp removed and patients were discontinued from bypass when body temperature was 37° C. The quality of anastomosis was judged by the surgeon. Difficulty in weaning from bypass was judged by need for one or more of the following: pacemaker, return to bypass, balloon pump or vasopressor administration. Hemodynamic measurements, including heart rate, arterial blood pressure, pulmonary capillary wedge pressure and cardiac output, were recorded before sternotomy, 15 and 30 min after bypass and upon chest closure. Radial artery and pulmonary artery pressures, myocardial and whole body temperature, O2 saturation, end-tidal CO2 and arterial blood gases were measured, and ECG recordings were obtained as clinically indicated. Hemodynamic variables (blood pressure, heart rate, pulmonary capillary wedge pressure) were controlled within 20% of baseline using prescribed regimens.
During the post-operative period through the first post-operative day, morphine and midazolam were used for sedation and analgesia. The cardiovascular medications required were recorded. During this period, continuous ECG monitoring (Holter) was performed for up to 48 hours. Hemodynamic measurements (pulmonary artery pressures and cardiac output) were obtained at 2, 4, 8 and 12 hours (in some cases at 24 and 48 hours) and also whenever clinically indicated.
A twelve-lead ECG was obtained on arrival in the intensive care unit and during post-operative days 1, 2, 3 and at hospital discharge. Creatinine phosphokinase MB band (CK-MB) was obtained every 8 hours for 48 hours and when indicated. Radio-nuclide ventriculography for ejection fraction and wall motion score was done about 14 days post-operation and as close to hospital discharge as possible. Other tests and measurements (e.g., chest x-ray, pulmonary artery wedge pressure (PCWP) were performed when clinically indicated for diagnosis or evaluation of myocardial infarction, or congestive heart failure. Timing and dose of all cardiovascular medications within 48 hours after surgery were recorded. The total dose of all analgesics during the 24-hour post-operative period was recorded. Fluid intake and output (e.g., blood replacement and urine output) were recorded for 48 hours. The type and duration of inotropic support and antiarrhythmic intervention required were recorded through 24 hours after surgery. Two-channel Holter recordings were obtained during 3 periods, the eight hours prior to intubation, from intubation through the end of surgery, and for an additional 24-48 hours after surgery.
9. Election Fraction. Pre-operative and post-operative ejection fractions were measured using different methodologies; therefore, changes could not be analyzed statistically. Group mean injection fractions and pre- and post-CABG are presented and apparent differences between groups were described.
Results for ejection fraction, measured on all patients pre-operatively (by angiography) and at the time of discharge from the intensive care unit (by radionuclide ventriculography) are given in Table 10 below.

[3] = 0.05 mg/kg/min, n=41, ICU + 8 HR
[4] = 0.05 mg/kg/min, n=41, ICU + 16 HR
[5] = 0.05 mg/kg/min, n=41, ICU + 32 HR
[6] = 0.05 mg/kg/min, n=41, ICU + 40 HR
[7] = 0.05 mg/kg/min, n=41, ICU + 48 HR
[8] = 0.05 mg/kg/min, n=41, discharge
[9] = 0.10 mg/kg/min, n=35, ICU + 8 HR
[10] = 0.10 mg/kg/min, n=35, ICU + 16 HR
[11] = 0.10 mg/kg/min, n=35, ICU + 32 HR
[12] = 0.10 mg/kg/min, n=35, ICU + 40 HR
[13] = 0.10 mg/kg/min, n=35, ICU + 48 HR
[14] = 0.10 mg/kg/min, n=35, discharge

Compound: NC(=O)c1ncn([C@@H]2O[C@H](CO)[C@@H](O)[C@H]2O)c1N [AICA riboside, 5-amino-1-β-D-ribofuranosyl-imidazole-4-carboxamide]
- CK, mean baseline ([1]; 0.05 mg/kg/min group, n=41): 89.2 +/- 30.9 U/L
- CK-MB, mean baseline ([1]; 0.05 mg/kg/min group, n=41): 0.2 +/- 0.1 U/L
- CK-MB, mean change from baseline ([1]; 0.05 mg/kg/min, n=41, 24 HR POST): 23.5 +/- 5.0 U/L
- CK, mean change from baseline ([1]; 0.05 mg/kg/min, n=41, ICU + 0): 346.2 +/- 45.3 U/L
- CK-MB, mean change from baseline ([1]; 0.05 mg/kg/min, n=41, ICU + 0): 24.5 +/- 2.7 U/L
- CK, mean change from baseline [1, 3]: 839.2 +/- 89.3 U/L
- CK-MB, mean change from baseline [1, 3]: 37.1 +/- 5.1 U/L
- CK, mean change from baseline [1, 4]: 1040.6 +/- 120.3 U/L
- CK-MB, mean change from baseline [1, 4]: 30.8 +/- 4.9 U/L
- CK, mean change from baseline [1, 5]: 874.7 +/- 126.3 U/L
- CK-MB, mean change from baseline [1, 5]: 9.2 +/- 2.5 U/L
- CK, mean change from baseline [1, 6]: 806.6 +/- 145.6 U/L
- CK-MB, mean change from baseline [1, 6]: 7.7 +/- 2.2 U/L
- CK, mean change from baseline [1, 7]: 784.0 +/- 149.9 U/L
- CK-MB, mean change from baseline [1, 7]: 3.9 +/- 1.5 U/L
- CK, mean change from baseline [1, 8]: 87.8 +/- 46.6 U/L
- CK-MB, mean change from baseline [1, 8]: 0.0 +/- 0.1 U/L
- Number of patients developing transmural myocardial infarction (new Q-wave and CK-MB ≥ 50 I.U.) ([1]; 0.05 mg/kg/min, n=41, p=0.42): 2 patients
- Number of patients with non-transmural myocardial infarction (CK-MB ≥ 50 I.U.) ([1]; 0.05 mg/kg/min, n=41, p=0.10): 13 patients
- Incidence of transmural myocardial infarction ([1]; 0.05 mg/kg/min, n=41, placebo […], p=0.42): 4.9%
- CK, mean baseline ([1]; 0.10 mg/kg/min group, n=35): 66.6 +/- 11.3 U/L
- CK-MB, mean baseline ([1]; 0.10 mg/kg/min group, n=35): 0.1 +/- 0.1 U/L
- CK-MB, mean change from baseline ([1]; 0.10 mg/kg/min, n=35, 24 HR POST): 21.1 +/- 5.3 U/L
- CK, mean change from baseline ([1]; 0.10 mg/kg/min, n=35, ICU + 0): 386.1 +/- 51.8 U/L
- CK-MB, mean change from baseline ([1]; 0.10 mg/kg/min, n=35, ICU + 0): 25.2 +/- 2.3 U/L
- CK, mean change from baseline [1, 9]: 869.6 +/- 143.7 U/L
- CK-MB, mean change from baseline [1, 9]: 34.3 +/- 6.2 U/L
- CK, mean change from baseline [1, 10]: 891.0 +/- 148.3 U/L
- CK-MB, mean change from baseline [1, 10]: 25.9 +/- 6.7 U/L
- CK, mean change from baseline [1, 11]: 894.0 +/- 142.9 U/L
- CK-MB, mean change from baseline [1, 11]: 12.8 +/- 4.5 U/L
- CK, mean change from baseline [1, 12]: 641.7 +/- 119.7 U/L
- CK-MB, mean change from baseline [1, 12]: 7.1 +/- 3.0 U/L
- CK, mean change from baseline [1, 13]: 499.8 +/- 100.5 U/L
- CK-MB, mean change from baseline [1, 13]: 3.5 +/- 2.1 U/L
- CK, mean change from baseline [1, 14]: 31.9 +/- 22.0 U/L
- CK-MB, mean change from baseline [1, 14]: 0.4 +/- 0.4 U/L
- Number of patients developing transmural myocardial infarction (new Q-wave and CK-MB ≥ 50 I.U.) ([1]; 0.10 mg/kg/min, n=35, p=0.42): 2 patients
- Non-transmural MI, combined treatment groups versus placebo ([1]; 0.05 + 0.1 mg/kg/min combined, p=0.046): statistically significant
- Number of patients with non-transmural myocardial infarction (CK-MB ≥ 50 I.U.) ([1]; high dose (0.1 mg/kg/min; Table 6 head prints 0.01), n=35, p=0.10): 8 patients
- Incidence of non-transmural myocardial infarction (CK-MB ≥ 50 I.U.) ([1]; high dose (0.1 mg/kg/min; Table 6 head prints 0.01), n=35, placebo 47%, p=0.10): 23.5%
- Rate of perioperative infarction, all drug-treated patients vs placebo ([1]; including first 5 which received higher doses, p<0.05): statistically significant reduction
- Other outcomes (CHF requiring balloon pump or LVAD, cardiac death, life-threatening arrhythmia) ([1]; three groups, exception patient A39 (intra-aortic balloon pump)): none of the other outcomes being evaluated
- Total CK levels compared with placebo; same trend for CK-MB release ([1]; treated groups, across all patients): trend toward a reduction in total CK levels in the treated groups compared with placebo
- Reduction in the frequency of post-operative myocardial infarctions ([1]; treatment groups vs placebo, p=0.15, not significant): 64%
- Ejection fraction ([2]; 0.05 mg/kg/min group, pre-bypass (pre-operative, LV angiography), placebo 57.6 ± 2.0, p=0.54): 55.0 ± 2.3%
- Ejection fraction ([2]; 0.05 mg/kg/min, post-bypass (radionuclide ventriculography), placebo 56.5 ± 2.3, p=0.28): 59.0 ± 2.0%
- Ejection fraction ([2]; 0.10 mg/kg/min group, pre-bypass (pre-operative, LV angiography), placebo 57.6 ± 2.0, p=0.54): 58.4 ± 2.4%
- Ejection fraction ([2]; 0.10 mg/kg/min, post-bypass (radionuclide ventriculography), placebo 56.5 ± 2.3, p=0.28): 61.3 ± 1.7%
- Effect on heart rate and blood pressure ([2]; CABG surgery): no effects of treatment with AICA riboside were seen on these parameters
- Ejection fraction vs placebo ([2]; post-operative, not statistically significant): higher mean ejection fractions post-bypass than the placebo group; also recorded: trend towards higher ejection fraction in the high dose AICA riboside group
